In the supplement of paper PMC10307832:

Experiments:
Assay in all cases: relative viability (nuclei count vs DMSO), 5 days (fraction); higher = more cells survive
[1] = compound: O=C(O)C(Cc1ccccc1[N+](=O)[O-])=NNc1nc(-c2ccc(Cl)c(Cl)c2)cs1 (mixture of isomers) [4EGI-1] + COc1cc2c(Oc3ccc(NC(=O)C4(C(=O)Nc5ccc(F)cc5)CC4)cc3F)ccnc2cc1OCCCN1CCOCC1 [Foretinib] (partner 0.25 µM)
How it was run: (§1)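 Medians of duplicate plates are given as relative viability. That measure is the nuclei count in treated wells divided by the count in vehicle wells. Counts were taken on 4× images of lung cancer cell lines in 1536-well plates, 5 days after pin-tool dosing the day after seeding with one drug alone or a fixed anchor-drug dose plus five library-drug doses (not always all listed) in √10 steps.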

[2] = compound: O=C(O)C(Cc1ccccc1[N+](=O)[O-])=NNc1nc(-c2ccc(Cl)c(Cl)c2)cs1 (mixture of isomers) [4EGI-1] + CC(=O)Nc1cccc(-n2c(=O)n(C3CC3)c(=O)c3c(Nc4ccc(I)cc4F)n(C)c(=O)c(C)c32)c1 [Trametinib] (partner 0.02 µM)
How it was run: as §1

[3] = compound: O=C(O)C(Cc1ccccc1[N+](=O)[O-])=NNc1nc(-c2ccc(Cl)c(Cl)c2)cs1 (mixture of isomers) [4EGI-1] + CS(=O)(=O)N1CCN(Cc2cc3nc(-c4cccc5[nH]ncc45)nc(N4CCOCC4)c3s2)CC1 [Pictilisib] (partner 1 µM)
How it was run: as §1

[4] = compound: CN1CCN(CC1)C2=CC(=C(C=C2)NC3=NC=C4C(=N3)N(C5=CC=CC=C5C(=O)N4C)C)OC [XMD8-85] + Cc1nc(Nc2ncc(C(=O)Nc3c(C)cccc3Cl)s2)cc(N2CCN(CCO)CC2)n1 [Dasatinib] (partner 0.075 µM)
How it was run: as §1

Cell Line	relative viability ([1]; first compound 0.5 µM)	relative viability ([1]; first compound 1.581 µM)	relative viability ([1]; first compound 5 µM)	relative viability ([1]; first compound 15.81 µM)	relative viability ([1]; first compound 50 µM)	relative viability ([2]; first compound 0.5 µM)	relative viability ([2]; first compound 1.581 µM)	relative viability ([2]; first compound 5 µM)	relative viability ([2]; first compound 15.81 µM)	relative viability ([2]; first compound 50 µM)	relative viability ([3]; first compound 0.5 µM)	relative viability ([3]; first compound 1.581 µM)	relative viability ([3]; first compound 5 µM)	relative viability ([3]; first compound 15.81 µM)	relative viability ([3]; first compound 50 µM)	relative viability ([4]; first compound 0.08 µM)	relative viability ([4]; first compound 0.253 µM)	relative viability ([4]; first compound 0.8 µM)	relative viability ([4]; first compound 2.53 µM)	relative viability ([4]; first compound 8 µM)
NCI-H1975	0.932	0.814	1.01	0.844	0.729	0.341	0.32	0.325	0.289	0.212	0.309	0.324	0.316	0.322	0.294	0.317	0.345	0.384	0.38	0.236
NCI-H1299	1.08	1.11	1.11	1.09	1.06						0.863	0.824	1.03	0.732	0.163					
EPLC-272H	0.721		0.735	1.26	0.132	0.308		0.339	0.249	0.226	0.338	0.306	0.369	0.293	0.205	0.33	0.253	0.4	0.501	0.25
Calu-6	0.933	0.717	0.919	0.912	0.659						0.969	0.937	0.825	0.79	0.198					
NCI-H1915	1.13	0.858	1.08	1.07	0.928	0.367	0.234	0.308	0.289	0.245	0.943	0.558	1.03	0.933	0.66	0.328	0.339	0.348	0.326	0.32
EBC-1	0.0952	0.0989	0.0859	0.0982	0.103						0.519	0.405	0.416	0.269	0.19					
A549	1.01	0.771	0.996	0.883	0.697						0.456	0.454	0.603	0.433	0.0907					
IA-LM	1.25	1.04	0.966	0.663	0.0865						0.349	0.317	0.243	0.0957	0.08					
NCI-H522						0.787	0.681	0.847	0.859	0.677						0.858	0.867	0.818	0.944	0.909
NCI-H2342	1.15	1.06	1.2	1.05	0.831	0.894	0.802	0.881	0.98	0.906						0.296	0.316	0.32	0.32	0.331
HCC-44						1.04	0.948	0.994	0.921	0.507	0.75	0.515	0.653	0.527	0.299					
ABC-1	1.21	0.896	1.17	0.587	0.271						0.898	0.647	0.724	0.359	0.268	0.515		0.503	0.673	0.408
